Results as given in patent US12077503B2, “Substituted cyclic amides and their use as herbicides” (FMC CORPORATION, priority 2015, dated 2024).

Key:
Assay type in all cases: in vivo
[1] = tested on: Galium (catchweed bedstraw, Galium aparine); assay: Test A postemergence; settings: Galium, post-emergence, 240 h; for pest or weed control at 125 g/ha: 125 g ai/ha, postemergence, visual injury on 0 to 100 scale (0 no effect, 100 complete control), approx. 10 d, read-out: Galium plant response rating; for pest or weed control at 31 g/ha: Postemergence, 31 g ai/ha, visual injury after approx. 10 d, 0 to 100 scale, 0 no effect, 100 complete control, read-out: Plant response rating, Galium
Procedure, shortened: (§1)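 Seeded soil received test chemicals as a preemergence directed spray, and seedlings at one to two leaves, 2–10 cm tall, received them postemergence, in a non-phytotoxic, surfactant-containing solvent mixture. Pots were held in a greenhouse for approximately 10 d, then rated for injury from 0, no effect, to 100, complete control.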

[2] = tested on: Kochia (Kochia scoparia); assay: Test A postemergence; settings: Bassia scoparia, post-emergence, 240 h; for pest or weed control at 125 g/ha: 125 g ai/ha, postemergence, visual injury on 0 to 100 scale (0 no effect, 100 complete control), approx. 10 d, read-out: Kochia plant response rating; for pest or weed control at 31 g/ha: Postemergence, 31 g ai/ha, visual injury after approx. 10 d, 0 to 100 scale, 0 no effect, 100 complete control, read-out: Plant response rating, Kochia
Procedure, shortened: as §1

[3] = tested on: pigweed (Amaranthus retroflexus); assay: Test A postemergence; settings: Amaranthus retroflexus, post-emergence, 240 h; for pest or weed control at 125 g/ha: 125 g ai/ha, postemergence, visual injury on 0 to 100 scale (0 no effect, 100 complete control), approx. 10 d, read-out: Pigweed plant response rating; for pest or weed control at 31 g/ha: Postemergence, 31 g ai/ha, visual injury after approx. 10 d, 0 to 100 scale, 0 no effect, 100 complete control, read-out: Plant response rating, Pigweed
Procedure, shortened: as §1

[4] = tested on: corn (Zea mays); assay: Test A postemergence; settings: Zea mays, post-emergence, 240 h; for plant injury at 125 g/ha: 125 g ai/ha, postemergence, visual injury on 0 to 100 scale (0 no effect, 100 complete control), approx. 10 d, read-out: Corn plant response rating; for Corn plant response rating (crop injury, 0 = no effect, 100 = complete kill) at 31 g/ha: Postemergence, 31 g ai/ha, visual injury after approx. 10 d, 0 to 100 scale, 100 complete control
Procedure, shortened: as §1

[5] = tested on: blackgrass (Alopecurus myosuroides); assay: Test A postemergence; settings: Alopecurus myosuroides, post-emergence, 240 h; for pest or weed control at 125 g/ha: 125 g ai/ha, postemergence, visual injury on 0 to 100 scale (0 no effect, 100 complete control), approx. 10 d, read-out: Blackgrass plant response rating; for pest or weed control at 31 g/ha: Postemergence, 31 g ai/ha, visual injury after approx. 10 d, 0 to 100 scale, 0 no effect, 100 complete control, read-out: Plant response rating, Blackgrass
Procedure, shortened: as §1

[6] = tested on: ragweed (common ragweed, Ambrosia elatior); assay: Test A postemergence; settings: Ambrosia artemisiifolia, post-emergence, 240 h; for pest or weed control at 125 g/ha: 125 g ai/ha, postemergence, visual injury on 0 to 100 scale (0 no effect, 100 complete control), approx. 10 d, read-out: Ragweed plant response rating; for pest or weed control at 31 g/ha: Postemergence, 31 g ai/ha, visual injury after approx. 10 d, 0 to 100 scale, 0 no effect, 100 complete control, read-out: Plant response rating, Ragweed
Procedure, shortened: as §1

[7] = tested on: ryegrass, Italian (Italian ryegrass, Lolium multiflorum); assay: Test A postemergence; settings: Lolium multiflorum, post-emergence, 240 h; for pest or weed control at 125 g/ha: 125 g ai/ha, postemergence, visual injury on 0 to 100 scale (0 no effect, 100 complete control), approx. 10 d, read-out: Ryegrass, Italian plant response rating; for pest or weed control at 31 g/ha: Postemergence, 31 g ai/ha, visual injury after approx. 10 d, 0 to 100 scale, 0 no effect, 100 complete control, read-out: Plant response rating, Ryegrass, Italian
Procedure, shortened: as §1

[8] = tested on: wheat (Triticum aestivum); assay: Test A postemergence; settings: Triticum aestivum, post-emergence, 240 h; for plant injury at 125 g/ha: 125 g ai/ha, postemergence, visual injury on 0 to 100 scale (0 no effect, 100 complete control), approx. 10 d, read-out: Wheat plant response rating; for plant injury at 31 g/ha: Postemergence, 31 g ai/ha, visual injury after approx. 10 d, 0 to 100 scale, 0 no effect, 100 complete control, read-out: Plant response rating, Wheat
Procedure, shortened: as §1

[9] = tested on: barnyardgrass (Echinochloa crus-galli); assay: Test A postemergence; settings: Echinochloa crus-galli, post-emergence, 240 h; for pest or weed control at 125 g/ha: 125 g ai/ha, postemergence, visual injury on 0 to 100 scale (0 no effect, 100 complete control), approx. 10 d, read-out: Barnyardgrass plant response rating; for pest or weed control at 31 g/ha: Postemergence, 31 g ai/ha, visual injury after approx. 10 d, 0 to 100 scale, 0 no effect, 100 complete control, read-out: Plant response rating, Barnyardgrass
Procedure, shortened: as §1

[10] = tested on: giant foxtail (Setaria faberii); assay: Test A postemergence; settings: Setaria faberi, post-emergence, 240 h; for pest or weed control at 125 g/ha: 125 g ai/ha, postemergence, visual injury on 0 to 100 scale (0 no effect, 100 complete control), approx. 10 d, read-out: Foxtail, Giant plant response rating; for pest or weed control at 31 g/ha: Postemergence, 31 g ai/ha, visual injury after approx. 10 d, 0 to 100 scale, 0 no effect, 100 complete control, read-out: Plant response rating, Foxtail, Giant
Procedure, shortened: as §1

[11] = tested on: sedge, umbrella (small-flower umbrella sedge, Cyperus difformis); assay: Test B flooded paddy test; settings: Cyperus difformis, 250 g ai/ha, Flood; 0 to 100 scale where 0 is no effect and 100 is complete control; read-out: Sedge, Umbrella plant response rating
Procedure, shortened: (§2)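 Greenhouse paddy pots with 2-leaf stage plants received compound by direct addition to floodwater 3 cm deep, kept at that level. Scored visually at 13–15 d versus controls (0 no effect; 100 complete control).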

[12] = tested on: rice (Oryra sativa); assay: Test B flooded paddy test; settings: Oryza sativa, 250 g ai/ha, Flood; 0 to 100 scale where 0 is no effect and 100 is complete control; read-out: Rice plant response rating
Procedure, shortened: as §2

[13] = tested on: ducksalad (Heteranthera limosa); assay: Test B flooded paddy test; settings: Heteranthera limosa, 250 g ai/ha, Flood; 0 to 100 scale where 0 is no effect and 100 is complete control; read-out: Ducksalad plant response rating
Procedure, shortened: as §2

[14] = tested on: barnyardgrass (Echinochloa crus-galli); assay: Test B flooded paddy test; settings: Echinochloa crus-galli, 250 g ai/ha, Flood; 0 to 100 scale where 0 is no effect and 100 is complete control; read-out: Barnyardgrass plant response rating
Procedure, shortened: as §2

[15] = tested on: Kochia (Kochia scoparia); assay: Test A preemergence; settings: Bassia scoparia, pre-emergence, 240 h, 0 to 100 scale where 0 is no effect and 100 is complete control, read-out: Kochia plant response rating; for pest or weed control at 31 g/ha: 31 g ai/ha, Preemergence; for pest or weed control at 125 g/ha: 125 g ai/ha, preemergence, approx. 10 d
Procedure, shortened: as §1

[16] = tested on: pigweed (Amaranthus retroflexus); assay: Test A preemergence; settings: Amaranthus retroflexus, pre-emergence, 240 h, 0 to 100 scale where 0 is no effect and 100 is complete control, read-out: Pigweed plant response rating; for pest or weed control at 31 g/ha: 31 g ai/ha, Preemergence; for pest or weed control at 125 g/ha: 125 g ai/ha, preemergence, approx. 10 d
[17] = tested on: ragweed (common ragweed, Ambrosia elatior); assay: Test A preemergence; settings: Ambrosia artemisiifolia, pre-emergence, 240 h, 0 to 100 scale where 0 is no effect and 100 is complete control, read-out: Ragweed plant response rating; for pest or weed control at 31 g/ha: 31 g ai/ha, Preemergence; for pest or weed control at 125 g/ha: 125 g ai/ha, preemergence, approx. 10 d
Procedure, shortened: as §1

[18] = tested on: ryegrass, Italian (Italian ryegrass, Lolium multiflorum); assay: Test A preemergence; settings: Lolium multiflorum, pre-emergence, 240 h, 0 to 100 scale where 0 is no effect and 100 is complete control, read-out: Ryegrass, Italian plant response rating; for pest or weed control at 31 g/ha: 31 g ai/ha, Preemergence; for pest or weed control at 125 g/ha: 125 g ai/ha, preemergence, approx. 10 d
Procedure, shortened: as §1

[19] = tested on: barnyardgrass (Echinochloa crus-galli); assay: Test A preemergence; settings: Echinochloa crus-galli, pre-emergence, 240 h, 0 to 100 scale where 0 is no effect and 100 is complete control, read-out: Barnyardgrass plant response rating; for pest or weed control at 31 g/ha: 31 g ai/ha, Preemergence; for pest or weed control at 125 g/ha: 125 g ai/ha, preemergence, approx. 10 d
Procedure, shortened: as §1

[20] = tested on: giant foxtail (Setaria faberii); assay: Test A preemergence; settings: Setaria faberi, pre-emergence, 240 h, 0 to 100 scale where 0 is no effect and 100 is complete control, read-out: Foxtail, Giant plant response rating; for pest or weed control at 31 g/ha: 31 g ai/ha, Preemergence; for pest or weed control at 125 g/ha: 125 g ai/ha, preemergence, approx. 10 d
Procedure, shortened: as §1

Compound	pest or weed control at 125 g/ha [1] [%]	pest or weed control at 31 g/ha [1] [%]	pest or weed control at 125 g/ha [2] [%]	pest or weed control at 31 g/ha [2] [%]	pest or weed control at 125 g/ha [3] [%]	pest or weed control at 31 g/ha [3] [%]	plant injury at 125 g/ha [4] [%]	Corn plant response rating (crop injury, 0 = no effect, 100 = complete kill) at 31 g/ha [4] [%]	pest or weed control at 125 g/ha [5] [%]	pest or weed control at 31 g/ha [5] [%]	pest or weed control at 125 g/ha [6] [%]	pest or weed control at 31 g/ha [6] [%]	pest or weed control at 125 g/ha [7] [%]	pest or weed control at 31 g/ha [7] [%]	plant injury at 125 g/ha [8] [%]	plant injury at 31 g/ha [8] [%]	pest or weed control at 125 g/ha [9] [%]	pest or weed control at 31 g/ha [9] [%]	pest or weed control at 125 g/ha [10] [%]	pest or weed control at 31 g/ha [10] [%]	other results
CSc1ccccc1NC(=O)[C@H]1C(=O)N(C)C[C@@H]1c1cc(C(F)F)cs1 [Compound 1088]	30	20	0	0	0	0	0	0	0	0	0	0	0	0	0	0	30	0	20	0	pest or weed control at 250 g/ha [11]: 0%; pest or weed control at 250 g/ha [12]: 0%; pest or weed control at 250 g/ha [13]: 75%; pest or weed control at 250 g/ha [14]: 30%; pest or weed control at 31 g/ha [15]: 30%; pest or weed control at 125 g/ha [15]: 20%; pest or weed control at 31 g/ha [16]: 0%; pest or weed control at 125 g/ha [16]: 0%; pest or weed control at 31 g/ha [17]: 0%; pest or weed control at 125 g/ha [17]: 0%; pest or weed control at 31 g/ha [18]: 0%; pest or weed control at 125 g/ha [18]: 0%; pest or weed control at 31 g/ha [19]: 0%; pest or weed control at 125 g/ha [19]: 30%; pest or weed control at 31 g/ha [20]: 0%; pest or weed control at 125 g/ha [20]: 100%
CN1C[C@H](c2cc(C(F)F)cs2)[C@@H](C(=O)Nc2cnccc2C(F)(F)F)C1=O [Compound 1091]	0	0	0	0	30	0	0	0	0	0	0	0	0	0	0	0	0	0	0	0	pest or weed control at 250 g/ha [11]: 0%; pest or weed control at 250 g/ha [12]: 0%; pest or weed control at 250 g/ha [13]: 0%; pest or weed control at 250 g/ha [14]: 0%; pest or weed control at 31 g/ha [15]: 20%; pest or weed control at 125 g/ha [15]: 40%; pest or weed control at 31 g/ha [16]: 10%; pest or weed control at 125 g/ha [16]: 0%; pest or weed control at 31 g/ha [17]: 100%; pest or weed control at 125 g/ha [17]: 0%; pest or weed control at 31 g/ha [18]: 0%; pest or weed control at 125 g/ha [18]: 0%; pest or weed control at 31 g/ha [19]: 0%; pest or weed control at 125 g/ha [19]: 0%; pest or weed control at 31 g/ha [20]: 50%; pest or weed control at 125 g/ha [20]: 100%
